Reference: patent publication US20120010131A1, “NOVEL CYCLOSPORIN ANALOGUES” (Scynexis, Inc., priority 2009, published 2012)
pEC50: −log10 of the molar value.

Tests used:
Jurkat cells = experiment: Cytotoxicity in parallel Alamar Blue plates (Jurkat cells); format: cell-based
Method: (§1) Compounds of the invention were tested for their T Cell stimulation (IL-2) in Jurkat cells with anti-CD3 and anti-CD28 co-stimulation. […] Cyclosporine A (control) was also run at a 0.5-Log 9-point titration, starting at 500 ng/mL. All compounds to be tested were dissolved in dimethyl sulfoxide. Cytotoxicity was evaluated with parallel Alamar Blue plates. Jurkat cells were seeded at 2×10^5 cells per well in 190 μL growth media in a 96-well plate, Cells were cultured in RPMI 1640 medium, 10% fetal bovine serum, and L-Glutamine with incubation at 37° C. with 5% carbon dioxide. After 1 hour of incubation the cells were stimulated with immobilized anti-CD3 (0.4m/well), anti-CD28 soluble (2 μg/mL). After 6 hours the sample supernatants were harvested and stored at −80° C. 50 μL samples of supernatant were tested for IL-2 using a Luminex® 1-plex assay.

IL-2 in Jurkat cells = experiment: T cell stimulation (IL-2) in Jurkat cells with anti-CD3 and anti-CD28 co-stimulation; format: cell-based; settings: 6 hours, Luminex 1-plex
Method: as §1

cyclophilin B = cyclophilin B (Homo sapiens, UniProt P23284); experiment: Cyclophilin binding competitive ELISA, cyclophilin B; settings: human recombinant cyclophilin
Method: (§2) The cyclophilin inhibition binding of compounds of the invention was determined using a competitive ELISA adapted from the methods described by Quesniaux et al. (Eur. J Immunol. 1987, Vol. 17, pages 1359-1365). Activated ester of succinyl spacers bound to D-Lys^8-cylosporine A (D-Lys^8-Cs) was coupled to bovine serum albumin (BSA) through D-lysyl residue in position 8. BSA was dissolved in 0.1 M borate buffer, pH 9.0 (4 mg in 1.4 ml). A hundredfold molar excess of D-Lys^8-Cs dissolved in dimethyl formamide (0.6 ml) was added dropwise to the BSA under vigorous stirring. […] After acetone precipitation of an aliquot of the conjugated protein, no covalently bound D-Lys^8-Cs remained in the acetone solution and the extent of cyclosporine covalent binding was calculated.
(§3) Microtiter Plates were coated with D-Lys^8-Cs-BSA conjugate ([…] in PBS for 24 hours at 4° C.). […] Cyclophilin was detected with anti-cyclophilin rabbit antiserum diluted in 1% BSA containing PBS and incubated overnight at 4° C. […] Bound rabbit antibodies were then detected by goat anti-rabbit IgG conjugated to alkaline phosphatase diluted in 1% BSA-PBS and allowed to incubate for 2 hours at 37° C. […] After incubation with 4-nitrophenyl phosphate (1 g/1 in diethanolamine buffer, pH 9.8) for 1 to 2 hours at 37° C., the enzymatic reaction was measured spectrophotometrically at 405 nm using a spectrophotometer.

cyclophilin A = cyclophilin A (Homo sapiens, UniProt P62937); experiment: Cyclophilin binding competitive ELISA, cyclophilin A; settings: human recombinant cyclophilin
Method: as §2, §3

cyclophilin D = cyclophilin D (Homo sapiens, UniProt P30405); experiment: Cyclophilin binding competitive ELISA, cyclophilin D; settings: human recombinant cyclophilin
Method: as §2, §3

[1] = tested on: HCV RNA replicon ET (luc ubi neo/ET); settings: read-out: EC50 (effective concentration that reduced viral replication by 50%); HCV replicon ET line, LUC reporter, 72 hours
Text: Compounds were examined in the human hepatoma cell line ET (lub ubi neo/ET), a HCV RNA replicon containing a stable luciferase (LUC) reporter. The HCV RNA replicon ET contains the 5′ end of HCV (with the HCV Internal Ribosome Entry Site (IRES) and the first few amino acids of the HCV core protein) which drives the production of a firefly luciferase (LUC), ubiquitin, and neomycin phosphotransferase (NeoR) fusion protein. Ubiquitin cleavage releases the LUC and NeoR proteins. The EMCV IRES element controls the translation of the HCV […] proteins NS3-NS5. […] At the 3′ end of the replicon is the authentic 3′ NTR of HCV. The activity of the LUC reporter is directly proportional to HCV replication levels and positive-control antiviral compounds produce a reproducible antiviral response using the LUC endpoint.
The activity of the LUC reporter is directly proportional to HCV RNA levels in the human cell line.

[2] = tested on: mitochondrial permeability transition (MPT); experiment: Mitochondrial permeability transition: Ca2+-induced swelling of rat liver mitochondria; format: biochemical; settings: swelling induced by 150 micromolar Ca2+, compound added 5 minutes before, read-out: EC50 (inhibition of mitochondrial swelling)
Method: Mitochondrial permeability transition (MPT) was determined by measuring swelling of the mitochondria induced by Ca^2+. The procedure was adapted from the method described by Blattner et al, Analytical Biochem, Volume 295, page 220 (2001). Mitochondria were prepared from rat livers, which had been perfused with phosphate-buffered saline (PBS) to remove blood, using standard methods that utilized gentle homogenization in sucrose based buffer and then differential centrifugation to first remove cellular debris and then to pellet the mitochondria. Swelling was induced by 150 micromolar Ca^2+ (added from a concentrated solution of calcium chloride) and was monitored by measuring the scattering at 535-540 nm. Representative compounds were added 5 minutes before swelling was induced. EC50 were determined by comparing swelling with and without the compounds of the invention.

cyclophilin A, sequence (P62937 whole entry): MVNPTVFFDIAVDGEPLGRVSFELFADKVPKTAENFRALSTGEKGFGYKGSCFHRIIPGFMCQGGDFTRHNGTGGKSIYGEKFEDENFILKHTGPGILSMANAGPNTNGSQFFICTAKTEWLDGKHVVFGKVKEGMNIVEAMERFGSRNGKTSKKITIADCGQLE
cyclophilin B, sequence (P23284 34-216): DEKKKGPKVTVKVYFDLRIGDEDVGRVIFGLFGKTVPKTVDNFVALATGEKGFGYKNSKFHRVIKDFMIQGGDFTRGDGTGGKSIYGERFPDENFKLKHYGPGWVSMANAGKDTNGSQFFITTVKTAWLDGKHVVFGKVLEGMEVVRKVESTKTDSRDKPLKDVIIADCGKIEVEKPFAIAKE
cyclophilin D, sequence (P30405 30-207): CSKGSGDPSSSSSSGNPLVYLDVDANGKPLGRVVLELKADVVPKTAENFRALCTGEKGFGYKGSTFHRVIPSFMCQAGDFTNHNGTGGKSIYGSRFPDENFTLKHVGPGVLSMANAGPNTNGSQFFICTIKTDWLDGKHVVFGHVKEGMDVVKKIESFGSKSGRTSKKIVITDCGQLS

C/C=C/C[C@@H](C)[C@@H](O)[C@H]1C(=O)N[C@@H](CC)C(=O)N(C)CC(=O)N(C)[C@@H](CC(C)(C)OCc2ccccc2)C(=O)N[C@@H](C(C)C)C(=O)N(C)[C@@H](CC(C)C)C(=O)N[C@@H](C)C(=O)N[C@H](C)C(=O)N(C)[C@@H](CC(C)C)C(=O)N(C)[C@@H](CC(C)C)C(=O)N(C)[C@@H](C(C)C)C(=O)N1C [Compound A, [4′-Benzyloxy-N-methylleucine]^4cyclosporine A]
Cytotoxicity (Jurkat cells): absence of cytotoxicity
IL-2 activity EC50 (IL-2 in Jurkat cells): 0.043 µg/mL
cyclophilin B binding value (cyclophilin B): 102 ng/mL
cyclophilin A binding value (cyclophilin A): ≤ 98 ng/mL
cyclophilin D binding value (cyclophilin D): 124 ng/mL
pEC50 [1]: 6.39
pEC50 [2]: > 5.00
